Test results from patent publication US5723580A, “Ketomethylene group-containing aldehyde cysteine and serine protease inhibitors” (Cephalon, Inc., priority 1996, dated 1998).
pIC50: −log10 of the molar value.

Key:
Type in all cases: biochemical
[1] = target: T1, Calpain I (Homo sapiens, UniProt P07384); experiment: Inhibition of calpain I activity (fluorescence, Succ-Leu-Tyr-MNA substrate hydrolysis); conditions: 0.2 mM Succ-Leu-Tyr-MNA, pH 7.5
T1 construct: made in house
T1 sequence (P07384 1-714): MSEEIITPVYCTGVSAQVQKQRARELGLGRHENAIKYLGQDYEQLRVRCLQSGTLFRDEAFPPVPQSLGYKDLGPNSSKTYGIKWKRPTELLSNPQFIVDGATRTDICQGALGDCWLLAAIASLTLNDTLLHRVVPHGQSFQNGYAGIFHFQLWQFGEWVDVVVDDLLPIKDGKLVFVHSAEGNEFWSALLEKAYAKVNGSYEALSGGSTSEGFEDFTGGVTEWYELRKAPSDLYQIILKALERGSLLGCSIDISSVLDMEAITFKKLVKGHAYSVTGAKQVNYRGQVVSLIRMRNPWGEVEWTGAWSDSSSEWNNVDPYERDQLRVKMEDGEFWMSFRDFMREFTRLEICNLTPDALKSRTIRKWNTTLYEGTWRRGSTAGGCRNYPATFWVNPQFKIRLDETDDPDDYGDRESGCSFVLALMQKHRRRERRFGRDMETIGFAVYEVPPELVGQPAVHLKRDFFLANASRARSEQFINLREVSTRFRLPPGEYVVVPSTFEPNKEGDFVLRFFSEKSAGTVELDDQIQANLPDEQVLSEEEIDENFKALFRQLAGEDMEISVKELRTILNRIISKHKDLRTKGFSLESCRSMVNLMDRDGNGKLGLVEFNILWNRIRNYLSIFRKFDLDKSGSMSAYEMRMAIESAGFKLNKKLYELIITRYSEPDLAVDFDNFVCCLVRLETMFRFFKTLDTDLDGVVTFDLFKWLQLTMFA
T1 sequence (P04632 1-268 partner): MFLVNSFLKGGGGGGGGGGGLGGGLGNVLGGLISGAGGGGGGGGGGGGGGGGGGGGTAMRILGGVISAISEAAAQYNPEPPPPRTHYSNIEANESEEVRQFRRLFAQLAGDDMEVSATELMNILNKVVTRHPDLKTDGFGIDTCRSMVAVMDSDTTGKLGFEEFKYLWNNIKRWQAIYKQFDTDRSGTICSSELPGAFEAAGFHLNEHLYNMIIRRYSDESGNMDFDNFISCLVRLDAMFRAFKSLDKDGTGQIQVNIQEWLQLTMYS
Procedure: (§1) To evaluate inhibitory activity, stock solutions (40 times concentrated) of each compound to be tested were prepared in 100% anhydrous DMSO and 5 μL of each inhibitor preparation were aliquoted into each of three wells of a 96-well plate. Calpain I, prepared by a modification of the method of W. J. Lee et al. (Biochem. Internatl. 22: 163-171 (1990)), was diluted into assay buffer (i.e., 50 mM Tris, 50 mM NaCl, 1 mM EDTA, 1 mM EGTA, and 5 mM-mercaptoethanol, pH 7.5 including 0.2 mM Succ-Leu-Tyr-MNA) and 175 μL aliquoted into the same wells containing the independent inhibitor stocks as well as to positive control wells containing 5 μL DMSO, but no compound. To start the reaction, 20 μL of 50 mM CaCl2 in assay buffer was added to all wells of the plate, excepting three, which were used as background signal baseline controls. Substrate hydrolysis was monitored every 5 minutes for a total of 30 minutes using a Fluoroskan II fluorescence plate reader. Substrate hydrolysis in the absence of inhibitor was linear for up to 15 minutes.
(§2) Inhibition of calpain I activity was calculated as the percent decrease in the rate of substrate (S) hydrolysis in the presence of inhibitor (I) relative to the rate in its absence (o). […] The results were plotted as % inhibition versus log inhibitor concentration and the IC50 was calculated from linear regression of the data.

[2] = test system: thrombin; experiment: Inhibition of thrombin (Bz-Phe-Val-Arg-AMC substrate); conditions: @10 uM; 25 μM Bz-Phe-Val-Arg-AMC, pH 7.5
[3] = test system: cathepsin L; experiment: Inhibition of cathepsin L activity (Cbz-Phe-Arg-AMC substrate); conditions: @1 uM; 0.006 mM Cbz-Phe-Arg-AMC, pH 6.0
Procedure: as §1, with “To start the reaction, 20 μL of 50 mM CaCl2 in assay buffer was added to all wells of the plate, excepting three, which were used as background signal baseline controls.” left out, “Substrate hydrolysis in the absence of inhibitor was linear for up to 15 minutes.” left out
as §2
(§3) Additionally, the order of reagents added to the plate was altered because both enzymes are constitutively active. […] Substrate hydrolysis was monitored using a Fluoroskan II (ex=390 nm; em=460 nm).

[4] = test system: cathepsin B; experiment: Inhibition of cathepsin B activity (Cbz-Phe-Arg-AMC substrate); conditions: @1 uM; 0.1 mM Cbz-Phe-Arg-AMC, pH 6.0
Procedure: as §1, with “To start the reaction, 20 μL of 50 mM CaCl2 in assay buffer was added to all wells of the plate, excepting three, which were used as background signal baseline controls.” left out, “Substrate hydrolysis in the absence of inhibitor was linear for up to 15 minutes.” left out
as §2, §3

[5] = test system: α-chymotrypsin; experiment: Inhibition of α-chymotrypsin (Succ-Ala-Ala-Pro-Phe-AMC substrate); conditions: @10 uM; 0.03 mM Succ-Ala-Ala-Pro-Phe-AMC, pH 7.5
Procedure: as §1, with “To start the reaction, 20 μL of 50 mM CaCl2 in assay buffer was added to all wells of the plate, excepting three, which were used as background signal baseline controls.” left out, “Substrate hydrolysis in the absence of inhibitor was linear for up to 15 minutes.” left out
Additionally, because α-chymotrypsin is not a calcium sensitive enzyme and is constitutively active, following addition of inhibitor stocks to the 96 well plates, 100 μl of a 2-fold concentrated stock of enzyme in dilution buffer was first added and the reaction started by addition of 100 μl of a 2-fold concentrated stock of substrate in assay buffer. Substrate hydrolysis was monitored every 5 minutes up to 30 minutes using a Fluoroskan II ([…]). […]

## CC(C)CC(CC(=O)[C@H](CC(C)C)NC(=O)OCc1ccccc1)C(=O)N[C@H](C=O)CC(C)C (stereo partly drawn) [compound 7, Z-Leu-Psi[COCH2 ]Leu-Leu-H]
[1]
  pIC50: 7.92
[2]
  Thrombin % I: 0%
[3]
  Cat L % I: 100%
[4]
  Cat B % I: 97%
[5]
  Chymotrypsin % I: 53%
